Test results: patent US7943749B2, “Antimicrobial 2-deoxystreptamine compounds” (Isis Pharmaceuticals, Inc., priority 2004, dated 2011)

Legend:
Conditions in all cases: 24 h
[1] = system: E. Coli; experiment: MIC, E. Coli; assay type: cell-based;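 also: minimum inhibitory concentration determined in duplicate in 96-well plates, compounds given in 4% aqueous DMSO, with ampicillin and tetracycline as positive controls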
[2] = system: S. Aureus; experiment: MIC, S. Aureus; assay type: cell-based
[3] = system: E. coli ATCC (25922); experiment: MIC, E. coli ATCC 25922; assay type: cell-based
[4] = system: S. aureus ATCC(13709); experiment: MIC, S. aureus ATCC 13709; assay type: cell-based
[5] = system: P. aurginosa ATCC(25416); experiment: MIC, P. aurginosa ATCC 25416; assay type: cell-based
[6] = system: P. aurginosa ATCC(29248); experiment: MIC, P. aurginosa ATCC 29248; assay type: cell-based
[7] = system: K. pneumoniae ATCC (10031); experiment: MIC, K. pneumoniae ATCC 10031; assay type: cell-based
[8] = system: P. vulgaris ATCC(8427)
Procedure: The MIC assays are carried out in 150 μL volume in duplicate in 96-well clear flat-bottom plates. The bacterial suspension from an overnight culture growth in appropriate medium is added to a solution of test compound in 4% DMSO in water. Final bacterial inoculum is approximately 10^5-10^6 CFU/well. […] Both ampicillin and tetracycline are used as antibiotic-positive controls in each screening assay for S. pyogenes, E. coli imp-, E. coli, S. aureus, E. faecalis, K. pneumoniae and P. vulgaris. Ciprofloxacin is used as an antibiotic positive control in each screening assay for P. aeruginosa.
The following compounds were prepared using methods illustrated in the previous examples. The compounds were also examined in standard bacterial assays against E. Coli, S. Aureus, P. aurginosa, K. pneumoniae, P. vulgaris, and A. baumannii to determine activities. Each of the bacterial cultures that are available from ATCC (www.atcc.org) is identified by its ATCC number. A. baumannii is gentamicin sensitive Acinetobacter baumannii #2 from Walter Reed.

[9] = system: gentamicin sensitive Acinetobacter baumannii #2 from Walter Reed; experiment: MIC, A. baumannii WReed 2; assay type: cell-based

Compound	MIC E. Coli. [1]	MIC S. Aureus [2]	also measured
NCC1OC(OC2C(CO)OC(OC3C(O)C(N)CC(N)C3OC3OC(CO)C(O)C(O)C3N)C2OCCNCc2ccccc2)C(N)C(O)C1O (stereo not shown) [IBIS00560974]	3 to 6 µM	3 to 5 µM	
NCC1OC(OC2C(CO)OC(OC3C(O)C(N)CC(N)C3OC3OC(CO)C(O)C(O)C3N)C2OCCNCc2ccc(N)nc2)C(N)C(O)C1O (stereo not shown) [IBIS00560975]	3 to 6 µM	0.3 to 0.6 µM	
NCC1OC(OC2C(CO)OC(OC3C(O)C(N)CC(N)C3OC3OC(CO)C(O)C(O)C3N)C2OCCNc2ccccn2)C(N)C(O)C1O (stereo not shown) [IBIS00561109]	12 to 25 µM	1 to 2 µM	
NCC1OC(OC2C(CO)OC(OC3C(O)C(N)CC(N)C3OC3OC(CO)C(O)C(O)C3N)C2OCCNCCCc2ccccc2)C(N)C(O)C1O (stereo not shown) [IBIS00561144]	3 to 5 µM	0.6 to 1.2 µM	
NCC1OC(OC2C(CO)OC(OC3C(O)C(N)CC(N)C3OC3OC(CO)C(O)C(O)C3N)C2OCCNCCCCc2ccccc2)C(N)C(O)C1O (stereo not shown) [IBIS00561145]	3 to 5 µM	0.6 to 1.2 µM	
COc1cc(CCNCCOC2C(OC3C(O)C(N)CC(N)C3OC3OC(CO)C(O)C(O)C3N)OC(CO)C2OC2OC(CN)C(O)C(O)C2N)cc(OC)c1 (stereo not shown) [IBIS00561192]	10 to 20 µM	5 to 10 µM	
NCC1OC(OC2C(CO)OC(OC3C(O)C(N)CC(N)C3OC3OC(CO)C(O)C(O)C3N)C2OCCNCCc2ccc(-c3ccccc3)cc2)C(N)C(O)C1O (stereo not shown) [IBIS00561193]	20 to 40 µM	5 to 10 µM	
NCC1OC(OC2C(CO)OC(OC3C(O)C(N)CC(N)C3OC3OC(CO)C(O)C(O)C3N)C2OCCNC23CC4CC(CC(O)(C4)C2)C3)C(N)C(O)C1O (stereo not shown) [IBIS00561195]	20 to 40 µM	1 to 3 µM	
NCC1OC(OC2C(CO)OC(OC3C(O)C(N)CC(N)C3OC3OC(CO)C(O)C(O)C3N)C2OCCNC2CCCc3ccccc32)C(N)C(O)C1O (stereo not shown) [IBIS00561950]	>10 µM	1.25 to 2.5 µM	
NCC1OC(OC2C(CO)OC(OC3C(O)C(N)CC(N)C3OC3OC(CO)C(O)C(O)C3N)C2OCCNCCC2CC3CCC2C3)C(N)C(O)C1O (stereo not shown) [IBIS00561951]	>10 µM	5.0 to 10.0 µM	
CC(C)CCCC(C)C1CCC2C3CCC4CC(NCCOC5C(OC6C(O)C(N)CC(N)C6OC6OC(CO)C(O)C(O)C6N)OC(CO)C5OC5OC(CN)C(O)C(O)C5N)CCC4(C)C3CCC12C (stereo not shown) [IBIS00561952]	>10 µM	2.5 to 5.0 µM	
NCC1OC(OC2C(CO)OC(OC3C(O)C(N)CC(N)C3OC3OC(CO)C(O)C(O)C3N)C2OCCNCCc2cc(C(F)(F)F)cc(C(F)(F)F)c2)C(N)C(O)C1O (stereo not shown) [IBIS00561954]	>10 µM	2.5 to 5.0 µM	
NCC1OC(OC2C(CO)OC(OC3C(O)C(N)CC(N)C3OC3OC(CO)C(O)C(O)C3N)C2OCCN(CCCc2ccccc2)CCc2ccccc2)C(N)C(O)C1O (stereo not shown) [IBIS00561969]			MIC E. coli ATCC (25922) [3]: 10 to 20 µM; MIC S. aureus ATCC(13709) [4]: 0.6 to 1.2 µM; MIC P. aurginosa ATCC(25416) [5]: 10 to 20 µM; MIC P. aurginosa ATCC(29248) [6]: >40 µM; MIC K. pneumoniae ATCC (10031) [7]: 2.5 to 5.0 µM; MIC P. vulgaris ATCC(8427) [8]: 10 to 20 µM; MIC A. baumannii WReed 2 [9]: 10 to 20 µM
